Experimental data taken from PMC9964319, “Half-Sandwich Rhodium Complexes with Releasable N-Donor Monodentate Ligands: Solution Chemical Properties and the Possibility for Acidosis Activation” (Pharmaceutics, 2023).
Where two headings read alike, the source gives them in different places.

Assays:
testicular tumors = system: testicular tumors; parameters: method as in doi:10.2174/2210298102666220404102936; details: cited from earlier work
[1] = Release of pyridine ligand from synthesized complex followed by 1H NMR; format: physicochemical
Description: The rate of the release of the monodentate ligand from the synthesized mixed-ligand complex is also of interest. Although a mixed-ligand complex with low stability should release its monodentate ligand easily, kinetic inertness has a major effect on reaching the equilibrium state. In contrast to their non-organometallic octahedral counterparts, half-sandwich Ru(II) and Rh(III) complexes have faster ligand exchange reactions.

[2] = Stability of mixed-ligand complex in methanol (1H NMR in CD3OD); format: physicochemical
Description: ^1H NMR (CD3OD, ppm, 500 MHz, standard: δ 3.31 (solvent residual peak)): δ 9.76 (dd, J = 5.2 Hz, 0.87 Hz, 2H, phen-H^2,9), δ 8.99 (dd, J = 8.3 Hz, 1.2 Hz, 2H, phen-H^4,7), δ 8.49 (d, J = 5.2 Hz, 2H, Py-H^2,6), δ 8.40 (dd, J = 8.2 Hz, 5.2 Hz, 2H, phen-H^3,8), δ 8.25 (s, 2H, phen-H^5,6), δ 7.91 (tt, J = 7.7 Hz, 1.4 Hz, 1H, Py-H^4), δ 7.46 (t, J = 7.1 Hz, 2H, Py-H^3,5), δ 1.75 (s, 15H, Cp*-H^methyl). Deuteration of Cp* is visible and highlighted in the spectrum in Figure S9. A small amount (<5%) of dissociated complex is visible in equilibrium with the complex, indicating the low stability of the mixed-ligand complex even in methanol.

[3] = Proton dissociation constants of the coordinated water in [M(arene)(N,N/O)(H2O)]2+/+ complexes (UV-vis titration); details: I = 0.10 M (KCl); t = 25.0 °C; UV-vis
Description: The proton dissociation of the aqua ligand in the [M(arene)(N,N/O)(H2O)]^2+/+ complexes (Scheme 2) results in the inert mixed-hydroxido species (general formula: [M(arene)(N,N/O)(OH)]^+/0).

[4] = Kinetics of mixed-ligand complex formation followed by UV-vis; format: physicochemical; details: complex:1-methylimidazole 1:2, pH 7.4 (phen, Figure 2) or 5.94 (en, Figure S23)
Protocol: Firstly, the reactions were followed by UV-vis spectrometry, and significant changes in the charge transfer bands were observed. Based on these preliminary measurements, the waiting time needed prior to measurement was determined. Generally, the reaction was faster for the RhCp* complexes than for the Ru(p-cym) analogs. […] The [Ru(p-cym)(en/phen)(H2O)]^2+ complexes reached chemical equilibrium within only hours, while the reaction between 1-methylimidazole and [RhCp*(phen)(H2O)]^2+ (Figure 2) or [RhCp*(en)(H2O)]^2+ (Figure S23) was completed within 90 min. However, the fractions of the mixed-ligand complexes cannot be determined from these spectral changes in the chemical equilibrium; thus, further experiments were carried out to determine the formation constants.
Figure 2 (a) Time-dependent UV-vis spectra of the c([RhCp*(phen)(H2O)]^2+):c(1-methylimidazole) = 1:2 mixture under physiological conditions (pH = 7.4 (PBS’ buffer)). (b) Time dependence of the absorbance values at 400 nm. {c([RhCp*(phen)(H2O)]^2+) = 200 μM; c(1-methylimidazole) = 400 μM; pH = 7.40 (PBS’); t = 25 °C; ℓ = 1 cm}.

[5] = cited from earlier work
[6] = Fractions of mixed-ligand complexes at 1:1 ratio at pH 6.0 and 7.4 by 1H NMR (screening of monodentate ligands); format: physicochemical; details: pH 6.0 and 7.4
Protocol: In the preliminary studies, the co-ordination ability of the monodentate ligands to the [RhCp*(en)(H2O)]^2+, [RhCp*(phen)(H2O)]^2+, and [RhCp*(8HQH-1)(H2O)]^+ complexes was tested (Chart 2). The samples contained the aqua complex and the monodentate ligand in a 1:1 ratio and were buffered at pH = 6.0 and pH = 7.4. For an ideal drug candidate, all of the monodentate ligand would be bound at pH 7.4; thus, the mixed-ligand complex would be present exclusively, which dissociates completely at pH 6.0.
Figure 1 Fractions of the formed mixed-ligand [RhCp*(N,N/O)(N)]^2+/+ complexes at c(complex):c(monodentate ligand) = 1:1 ratio measured at pH = 6.0 (full bars) and 7.4 (checkered bars). Fractions were determined by the integration of the peaks in the ^1H NMR spectra. The percentage values above the columns show the difference in the fractions of the mixed-ligand complex at the two pH values. {c([RhCp*(phen)(H2O)]^2+) = c([RhCp*(en)(H2O)]^2+) = 1 mM; c([RhCp*(8HQH−1)(H2O)]^+) = 500 μM; 10% D2O; pH = 6.0 or 7.4 (PBS’); t = 25.0 °C}. […] The percentages were assigned to (N,N) = en, (N,N) = phen and (N,O) = 8HQH-1 by bar colour only.

[7] = I = 0.10 M (KCl); t = 25.0 °C; pH-potentiometry (benzimidazole: UV-vis)
Protocol: (§6) pH-potentiometric measurements were performed to determine the protonation constants (Kp) of the ligands and the concentration of the stock solutions. These measurements were carried out at 25.0 ± 0.1 °C in water in a pH range between 2.0 and 11.5, titrating with carbonate-free KOH solution (0.10 M). […] A Thermo Scientific 0710A0 benchtop pH meter (Waltham, MA, USA), equipped with a Metrohm combined electrode (type 6.0234.100) and a Metrohm 665 Dosimat burette (Metrohm, Herisau, Switzerland) was used for these measurements. […] The initial volume of the samples was 10.0 mL, and the ligand concentration was 2.0 mM in the samples. Samples were degassed by bubbling purified argon prior to and during the measurements. The computer program Hyperquad2013 [28] was utilized to determine the protonation constants of the ligands and concentration.
(§7) The protonation constants (Kp) were determined by pH-potentiometric and UV-vis spectrophotometric titrations in the presence of 0.1 M KCl (see Table 1 and Figures S21 and S22 for examples).

[8] = system: Colo205 human colon adenocarcinoma cell line (doxorubicin-sensitive); test: MTT assay, cytotoxicity at pH 6 and 7; format: cell-based; details: Homo sapiens, COLO 205, Colo205, 72 h incubation, read-out: IC50
Protocol: (§1) All cell culture reagents were obtained from Sigma-Aldrich (Merck KGaA, Darmstadt, Germany) and plasticware from Sarstedt (Nümbrecht, Germany). Human colonic adenocarcinoma cell lines Colo205 (catalog number: ATCC-CCL-222) and its doxorubicin-resistant counterpart Colo320 (catalog number: ATCC-CCL-220.1) were purchased from LGC Promochem (Teddington, UK). The cells were cultured in RPMI 1640 medium supplemented with 10% heat-inactivated fetal bovine serum, 2 mM L-glutamine, 1 mM sodium pyruvate, and 100 mM HEPES buffer, adjusting the pH to 6.0 or 7.0. The cells were incubated at 37 °C in a 5% CO2–95% air atmosphere. The semiadherent human colon cancer cells were detached with Trypsin-Versene solution for 5 min at 37 °C.
(§2) The solutions were freshly prepared prior to measurements (see Section 2.1). […] Firstly, these samples were diluted in complete culture medium; then, two-fold serial dilutions of the compounds were prepared in 100 μL of RPMI 1640, horizontally. The semiadherent colonic adenocarcinoma cells were treated with Trypsin-Versene solution. They were adjusted to a density of 1 × 10^4 cells in 100 μL of RPMI 1640 medium and were added to each well, with the exception of the medium control wells. The final volume of the wells containing compounds and cells was 200 μL. Samples were triplicated. The pH of the medium was adjusted to 6.0 or 7.0.
(§3) The culture plates were incubated at 37 °C for 72 h; at the end of the incubation period, 20 μL of MTT solution (from a stock solution of 5 mg/mL) was added to each well. After incubation at 37 °C for 4 h, 100 μL of SDS solution (10% in 0.01 M HCI) was added to each well, and the plates were further incubated at 37 °C overnight. Cell growth was determined by measuring the optical density (OD) at 540/630 nm with a Multiscan EX ELISA reader (Thermo Labsystems, Cheshire, WA, USA). […] Curves were fitted using GraphPad Prism software (2022, version 9.4.1, Graphpad Software (LLC) d.b.a Dotmatics, San Diego, CA, USA) using the sigmoidal dose–response model (comparing variable and fixed slopes).
(§4) The pH-dependent solution speciation of the selected mixed-ligand complexes is an important feature in the hypothesized mechanism of action, and the modeling of acidosis is necessary for the in vitro anticancer assays. In order to find out the cytotoxicity difference based on the pH of the medium, cytotoxic activity was determined at pH 6 and 7 by MTT assay in two human colon adenocarcinoma cell lines (doxorubicin-sensitive Colo205 and doxorubicin-resistant Colo320). […] The mixed-ligand complexes were prepared prior to the measurements, as was already described in Section 2.1. With this method, the effect of the different counter ions could be avoided, and a more adequate comparison of the mixed-ligand complexes could be conducted.

[9] = system: Colo320 human colon adenocarcinoma cell line (doxorubicin-resistant); test: MTT assay, cytotoxicity at pH 6 and 7; format: cell-based; details: Homo sapiens, COLO 320, Colo320, 72 h incubation, read-out: IC50
Protocol: as §1, §2, §3, §4

[10] = system: E. coli 32313 (resistant); test: Antibacterial assay, MIC in 96-well plates at different pH; format: cell-based; details: Escherichia coli
Outline: (§5)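 Broth microdilution MIC per CLSI in Mueller Hinton broth, with overnight culture diluted 10,000-fold as inoculum. Each strain and compound tested at pH 5, 6, 7 and 8, in triplicate.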

[11] = system: E. coli ATCC 25922 (sensitive); test: as above; format: cell-based; details: Escherichia coli
Outline: as §5

S. aureus 272123 (MRSA) = test: as above; format: cell-based; details: Staphylococcus aureus
Outline: as §5

[12] = system: S. aureus ATCC 25923 (methicillin-susceptible); test: as above; format: cell-based; details: Staphylococcus aureus
Outline: as §5

Protocol for physchem: as §6, §7

In the case of `N.N.[Cl][Pt][Cl]` [Cisplatin], the cure rates (testicular tumors) is listed as “above 95%”.

In the case of `Cc1c(C)c(C)[c-](C)c1C.NCCN.O=S(=O)([O-])C(F)(F)F.O=S(=O)([O-])C(F)(F)F.[Rh+3].c1ccncc1` [Complex 2], the monodentate ligand dissociated ([1]; pH 6.0, after 5 min) is reported as ~ 75% and the “released monodentate ligand at chemical equilibrium” value ([1]; pH 6.0, after half an hour) is reported as ~ 94%.

For `Cc1c(C)c(C)[c-](C)c1C.O=S(=O)([O-])C(F)(F)F.O=S(=O)([O-])C(F)(F)F.[Rh+3].c1ccncc1.c1cnc2c(c1)ccc1cccnc12` [Complex 4], the “dissociated complex in equilibrium with the complex” value [2] was < 5%.

For `Cc1c(C)c(C)[c-](C)c1C.NCCN.O.[Rh+3]` [[RhCp*(en)(H2O)]2+], the “pKa of the coordinated water molecule” value [3] was 10.6±0.1 and the “time to completion of the reaction with 1-methylimidazole” value [4] was ≤ 90 min.

For `Cc1c(C)c(C)[c-](C)c1C.O.[Rh+3].c1cnc2c(c1)ccc1cccnc12` [[RhCp*(phen)(H2O)]2+], the “pKa of the coordinated water molecule” value [3] was 10.05±0.01 and the “time to completion of the reaction with 1-methylimidazole” value [4] was ≤ 90 min.

For `c1ccc2[nH]cnc2c1` [benzimidazole], the pKa (physchem; water with 0.10 M KCl) is listed as 5.44 ± 0.01 and the “logKp (= pKa), literature data” value [5] is listed as 5.54 [44].

In the case of `CN` [methylamine], the “interaction (co-ordination) with the RhCp* aqua complexes” value [6] is given as “no interaction was found”, the “logKp (= pKa)” value [7] is given as 10.58 ± 0.03 and the “logKp (= pKa), literature data” value [5] is given as 10.51 [47].

In the case of `Cn1ccnc1` [mim, 1-methylimidazole, reference compound], the IC50 ([8]; pH 6) is reported as > 100 µM, the IC50 ([8]; pH 7) is reported as > 100 µM and the IC50 ([9]; pH 6) is reported as > 100 µM. The IC50 ([9]; pH 7) was > 100 µM, the MIC ([10]; 24 h, E. coli resistant, pH 5, after one day, read-out: MIC) was > 100 µM and the MIC ([10]; 24 h, E. coli resistant, pH 6, after one day, read-out: MIC) was > 100 µM. For the same molecule, the MIC ([10]; 24 h, E. coli resistant, pH 7, after one day, read-out: MIC) was > 100 µM, the MIC ([10]; 24 h, E. coli resistant, pH 8, after one day, read-out: MIC) was > 100 µM and the MIC ([10]; any of the bacterial strains, resistant E. coli, read-out: MIC (no antibacterial effect)) was > 100 µM. For the same molecule, the MIC ([11]; ATCC25922, 24 h, E. coli sensitive, pH 5, after one day, read-out: MIC) was > 100 µM, the MIC ([11]; ATCC25922, 24 h, E. coli sensitive, pH 6, after one day, read-out: MIC) was > 100 µM and the MIC ([11]; ATCC25922, 24 h, E. coli sensitive, pH 7, after one day, read-out: MIC) was > 100 µM. The MIC ([11]; ATCC25922, 24 h, E. coli sensitive, pH 8, after one day, read-out: MIC) was > 100 µM, the MIC ([11]; ATCC25922, any of the bacterial strains, E. coli, read-out: MIC (no antibacterial effect)) was > 100 µM and the MIC (S. aureus 272123 (MRSA); 24 h, pH 5, after one day, read-out: MIC) was > 100 µM. For the same molecule, the MIC (S. aureus 272123 (MRSA); 24 h, pH 6, after one day, read-out: MIC) was > 100 µM, the MIC (S. aureus 272123 (MRSA); 24 h, pH 7, after one day, read-out: MIC) was > 100 µM and the MIC (S. aureus 272123 (MRSA); 24 h, pH 8, after one day, read-out: MIC) was > 100 µM. The MIC (S. aureus 272123 (MRSA); any of the bacterial strains, read-out: MIC (no antibacterial effect)) was > 100 µM, the MIC ([12]; ATCC25923, 24 h, S. aureus sensitive, pH 7, after one day, read-out: MIC) was > 100 µM and the MIC ([12]; ATCC25923, 24 h, S. aureus sensitive, pH 8, after one day, read-out: MIC) was > 100 µM. For the same molecule, the MIC ([12]; ATCC25923, any of the bacterial strains, S. aureus, read-out: MIC (no antibacterial effect)) was > 100 µM and the pKa (physchem) was 7.14 ± 0.01.
